Data as given in patent publication US5958906A, “Phospholipid derivatives containing higher elements of the fifth main group” (ASTA-Medica Aktiengesellschaft, priority 1992, dated 1999).
≈ marks a conversion by molar mass, not a printed value. Counter-ions that a name gives are not always drawn.

Tests used:
KB cells [1] = assay: Soft-Agar-Colony-Assay with KB cells in vitro; type: cell-based; conditions: colony formation inhibited up to 90%, effective criterion EC90 <10 μg/ml; for IC90: Homo sapiens
Experimental: Tests with KB cells were carried out as a Soft-Agar-Colony-Assay in accordance with Salmon and Hamburger, N. Engl.
(§1) Values exceeding 100 indicate tumor regressions in relation to the starting size of the tumor. […] Values below 0 indicate that the tumor growth was stimulated. KB in vivo represents a tumor model in which KB cells are transplanted subcutaneously into naked NMRI mice. DMBA in vivo represents a tumor model in which tumors of the milk inguinal were induced chemically in female test rats by administering Dimethylbenzanthracen (DMBA). EC90 values which exceed 10 are considered ineffective.

[2] = tested on: tumors of the milk inguinal induced by Dimethylbenzanthracen (DMBA); assay: DMBA in vivo: tumors of the milk inguinal induced chemically by Dimethylbenzanthracen, growth inhibition index; design: species or system female test rats; conditions: orally, >100 = tumor regression
Experimental: (§2) The substances were administered orally in solution with the help of an esophagus probe (respective dosages in parenthesis).
(§3) Indicated is the growth inhibition index (Wachstumshemmungsindex WHI) in percent which was reached and which can be calculated as follows: [formula] with WC =median tumor weight difference in the reference group based on day 0
(§4) Wt =corresponding value for the treated group
as §1

[3] = tested on: Leishmania mexicana (promastigotes); assay: Inhibiting effect on Leishmania mexicana (promastigotes); type: cell-based; conditions: partially mean values of two values
Experimental: Tests measuring the inhibiting effect on Leishmania mexicana (promastigotes) were conducted in accordance with the procedures set forth in R. F. Stieger et al., European Journal of Biochemistry, Vol.105 (1980), pp.163-175 and D. T. Hardt, and F. R. Opperdoes, Molecular and Biochemical Parasitology Vol. 113 (1984), pp. 159-172.
Inhibiting effect on Leishmania mexicana (promastigotes),
indicated as EC90 values (partially mean values of two values)

KB cells [4] = assay: KB in vivo: KB cells transplanted subcutaneously into naked NMRI mice, growth inhibition index; conditions: orally, >100 = tumor regression
Experimental: as §2, §3, §4, §1

[5] = LD50 on single administration per os in the mouse; conditions: in vivo, po
L1210-cell = L1210-cell culture experiment; type: cell-based; conditions: 90% growth inhibition in vitro vs control
Text: The EC90 is the concentration of an anti-tumor substance in μg/ml which inhibits the growth of cancer cells by 90% in vitro compared to a control experiment without addition of the anti-tumor substance.

SMILES | EC90 (KB cells in vitro) (KB cells [1]) | IC90 (KB cells [1]) | other results
CCCCCCCCCCCCCCCCOP(=O)([O-])OCC[As+](CC)(CC)CC [Example 8, 2-[[(Hexadecyloxy)hydroxyphosphinyl]oxy]-As,As,As-tri-ethyl ethyl arsonium inner salt] | > 10 µg/mL | – | –
CCCCCCCCCCCCCCCCCCOP(=O)([O-])OCC[As+](CC)(CC)CC [Example 7, 2-[[(Octadecyloxy)hydroxyphosphinyl]oxy]-As,As,As-triethyl ethyl arsonium inner salt] | 3.0 µg/mL | – | –
CCCCCCCCCCCCCCCCCCOP(=O)([O-])OCC[P+](C)(C)C [Example 4, 2-[[(octadecyloxy)hydroxyphosphinyl]oxy]-P,P,P-trimethyl ethyl phosphonium inner salt] | – | 3.1 µg/mL | WHI (DMBA in vivo), growth inhibition index ([2]; 4 × 147 mg/kg): 108.7%; EC90 ([3]; Leishmania mexicana): 0.8 µg/mL; EC90 ([3]; Leishmania mexicana, molar): 1800 ± 220 nM; WHI (KB in vivo), growth inhibition index (KB cells [4]; 2 × 316 mg/kg): 111%
CCCCCCCCCCCCCCCCCCOP(=O)([O-])OCCC[As+](C)(C)C [Example 10, 3-[[(Octadecyloxy)hydroxyphosphinyl]oxy]-As,As,As-trimethyl propylarsonium inner salt] | 5.8 µg/mL | – | WHI (KB in vivo), growth inhibition index (KB cells [4]; 2 × 316 mg/kg): 104%
CCCCCCCC/C=C\CCCCCCCCCCCCOP(=O)([O-])OCCC[P+](C)(C)C [Example 13, 3-[[(Cis-13-docosenyloxy)hydroxyphosphinyl]oxy]-P,P,P-tri-methylpropyl phosphonium inner salt] | – | > 10 µg/mL | –
CCCCCCCCCCCCC1CCC(COP(=O)([O-])OCC[As+](C)(C)C)CC1 (stereo not drawn) [Example 23, 2-[[(4'-Dodecylcyclohexyl)methyloxy)hydroxyphosphinyl]oxy]As,As,As-trimethylethyl arsonium inner salt] | > 10 µg/mL | – | –
CCCCCCCC/C=C\CCCCCCCCCCCCOP(=O)([O-])OCC[As+](C)(C)C [Example 3, 2-[[(cis-13-docosenyloxy)hydroxyphosphinyl]oxy-As,As,As-trimethylethylarsoniuminner salt] | > 10 µg/mL | – | LD50 [5]: > 1470 mg/kg
CCCCCCCCCCCCCCCCCCCCOP(=O)([O-])OCC[As+](C)(C)C [Example 19, 2-[[(Eicosyloxy)hydroxyphosphinyl]oxy]-As,As,As-trimethylethyl arsonium inner salt] | insoluble | – | –
CCCCCCCCCCCCCCCCCCCCOP(=O)([O-])OCC[P+](C)(C)C [Example 17, 3-[[(Eicosyloxy)hydroxyphosphinyl]oxy]-P,P,P-trimethylethyl phosphonium inner salt] | – | 3 µg/mL | –
CCCCCCCC/C=C\CCCCCCCCCCCCOP(=O)([O-])OCC[P+](CC)(CC)c1ccccc1 [Example 22, 2-[[(Cis-13-docosenyloxy)hydroxyphosphinyl]oxy]-P,P-diethyl P-phenyl-ethyl phosphonium inner salt] | – | 3.1 µg/mL | –
CCCCCCCCCCCCCCCCOP(=O)([O-])OCCC[As+](C)(C)C [Example 11, 3-[[(Hexadecyloxy)hydroxyphosphinyl]oxy]-As,As,As-trimethyl propylarsonium inner salt] | > 10 µg/mL | – | –
CCCCCCCC/C=C\CCCCCCCCCCCCOP(=O)([O-])OCC[P+](C)(C)C [Example 6, 2-[[(Cis-13-docosenyloxy) hydroxyphosphinyl]oxy]-P,P,P-trimethylethyl phosphonium inner salt] | – | > 10 µg/mL | WHI (DMBA in vivo), growth inhibition index ([2]; 4 × 147 mg/kg): 43.9%
CCCCCCCCCCCCCCCCCCOP(=O)([O-])OCCC[P+](C)(C)C [Example 14, 3-[[(Octadecyloxy)hydroxyphosphinyl]oxy]-P,P,P-trimethylpropyl phosphonium inner salt] | – | 3 µg/mL | –
CCCCCCCCCCCCCCCCCCOCC(COP(=O)([O-])OCC[As+](C)(C)C)OC (racemic) [Example 24, 1-0-Octadecyl-2-0-methyl-rac-glycerophosphoarsenocholine] | 2.8 µg/mL | – | WHI (DMBA in vivo), growth inhibition index ([2]; 4 × 100 mg/kg): 73%; EC90 inhibiting effect on Leishmania mexicana (promastigotes) [3]: 0.9 µg/mL; EC90 ([3]; molar): 1500 nM
CCCCCCCCCCCCCCCCOP(=O)([O-])OCC[As+](C)(C)C [Example 2, 2-[[(hexadecyloxy)hydroxyphosphinyl]oxy]-As,As,As-trimethyl ethyl arsonium inner salt] | 27 µg/mL | – | –
CCCCCCCCCCCCCCCCCOP(=O)([O-])OCC[As+](C)(C)C [Example 20, 2-[[(Heptadecyloxy)hydroxyphosphinyl]oxy]-As,As,As-trimethylethyl arsonium inner salt] | 3.2 µg/mL | – | –
CCCCCCCCCCCCCCCCCCOP(=O)([O-])OCC[As+](C)(C)C [Example 1, 2-[[(Octadecyloxy)hydroxyphosphenyl]oxy]-As,As,As-trimethyl ethyl arsonium inner salt] | 3.2 µg/mL | – | WHI (DMBA in vivo), growth inhibition index ([2]; 4 × 100 mg/kg): 112.8%; EC90 inhibiting effect on Leishmania mexicana (promastigotes) [3]: 0.8 µg/mL; EC90 ([3]; molar): 1800 nM; WHI (KB in vivo), growth inhibition index (KB cells [4]; 1 × 511 mg/kg): 42.9%; EC90 (L1210-cell): 2.9 µg/mL
CCCCCCCCCCCCCCCCCCOP(=O)([O-])OCC[P+](CC)(CC)c1ccccc1 [Example 21, 2-[[(Octadecyloxy)hydroxyphosphinyl]oxy]-P,P-diethyl-P-phenyl-ethyl phosphonium inner salt] | – | 3.1 µg/mL | –
CCCCCCCCCCCCCCCCCCCOP(=O)([O-])OCC[As+](C)(C)C [Example 18, 2-[[(Nonadecyloxy)hydroxyphosphinyl]oxy]-As,As,As-trimethethyl arsonium inner salt] | 3.0 µg/mL | – | –
CCCCCCCC/C=C\CCCCCCCCCCCCOP(=O)([O-])OCCC[As+](C)(C)C [Example 12, 3-[[(Cis-13-docosenyloxy)hydroxyphosphinyl]oxy]-As,As,As-trimethylpropyl arsonium inner salt] | > 10 µg/mL | – | –
CCCCCCCCCCCCCCCCCCOCC(COP(=O)([O-])OCC[P+](C)(C)C)OC (racemic) [Example 25] | – | 2.7 µg/mL (≈ 4.99 µM) | EC90 ([3]; Leishmania mexicana): 1.8 µg/mL; EC90 ([3]; Leishmania mexicana, molar): 3300 ± 370 nM
CCCCCCCCCCCCCCCCOP(=O)([O-])OCCC[P+](C)(C)C [Example 15, 3-[[(Hexadecyloxy)hydroxyphosphinyl]oxy]-P,P,P-trimethylpropyl phosphonium inner salt] | – | > 10 µg/mL | –
CCCCCCCCCCCCCCCCCCCOP(=O)([O-])OCC[P+](C)(C)C [Example 16, 3-[[(Nonadecyloxy)hydroxyphosphinyl]oxy]-P,P,P-trimethyl-ethyl phosphonium inner salt] | – | 2.6 µg/mL | –
CCCCCCCCCCCCCCCCOP(=O)([O-])OCC[P+](C)(C)C [Example 5, 2-[[(hexadecyloxy)hydroxyphosphinyl]oxy]-P,P,P-trimethyl ethyl phosphonium inner salt] | – | > 10 µg/mL | –
CCCCCCCC/C=C\CCCCCCCCCCCCOP(=O)([O-])OCC[As+](CC)(CC)CC [Example 9, 2-[[Cis-13-docosenyloxy)hydroxyphosphinyl]oxy]-As,As,As-triethylethyl arsonium inner salt] | > 10 µg/mL | – | –
